Assay results as given in US20080015189A1, “Antimicrobial photoinactivation using chalcogen analogs of benzo(A)phenoxazinium dyes” (The General Hospital Corporation, priority 2006, published 2008).

How the values were obtained:
[1] = tested on: Escherichia coli (ATCC 25922); test: Photodynamic inactivation of E. coli (survival fraction by CFU after red light); format: cell-based; details: 5 μM dye
Description: (§1) The microorganisms studied were Escherichia coli (ATCC 25922), Enterococcus faecalis (ATCC 29212), and Candida albicans (ATCC 18804). The microorganism species chosen to evaluate the photoactivities of the dyes in the present study are important pathogens in the type of infections, such as wounds and burns, likely to be amenable to photodynamic therapy (PDT). E. faecalis is typical of Enterococci that frequently develop vancomycin resistance and are important nocosomial pathogens in post-surgical wounds and burns.^42 Although E. coli is generally thought of as an intestinal or urinary tract pathogen, there is increasing concern about its presence in wound infections and its ability to develop extended spectrum beta-lactamase resistance.^43,44 C. albicans is increasingly found in nocosomial infections in burns^45 and, to a lesser extent, in surgical wounds.^46
(§2) Cells were grown at 37° C. in aerobic conditions in a shaker at 150 rpm. Brain-heart infusion broth (Difco, BD Diagnostic Systems, Sparks, Md.) was used for E. coli and E. faecalis, YM medium (Difco) was used for C. albicans. Exponential cultures obtained by reculturing stationary overnight precultures were used for all experiments. E. coli and E. faecalis were grown in fresh medium for approximately 1 h to a density of 10^8 cells/mL; the OD values at 650 nm were 0.6. C. albicans was grown for approximately 4 h to approximate density of 10^7 cells/mL corresponding to an OD of 6 at 650 nm (ten fold dilution measured). Exact cell numbers were confirmed by counting colony forming units obtained after serial dilution on square BHI (or YM for Candida) agar plates.
(§3) Stock solutions (2 mM) of the three chalcogen dyes were prepared in water and stored at 4° C. in the dark for no longer than 1 month before use. A non-coherent light source with interchangeable fiber bundles (LumaCare, London, UK) was employed. Thirty-nm band pass filters allowed total powers of roughly 1 W to be obtained from 630+/−15 nm for EtNBA (1), 652+/−15 nm for EtNBS (2), and 660+/−15 nm for EtNBSe (3).
Suspensions of microorganisms were incubated for 10 minutes with photosensitizer in the dark at room temperature. Unbound photosensitizer was washed out by centrifugation of the mixture of dye and microorganisms for 6 minutes at 1550g, followed by resuspension of washed pellets in 10 mL PBS without Ca^++/Mg^++. Aliquots (200 μL) of these suspensions were used for photodynamic inactivation (PDI) experiments; the remaining suspensions were centrifuged again, and the pellets were dissolved in 3 mL 10% SDS for at least 24 hours. These suspensions were used for photosensitizer uptake measurement. The fluorescence of dissolved pellets was measured on a spectrofluorimeter (FluoroMax3, SPEX Industries, Edison, N.J.). For EtNBA (1), the excitation wavelength was 625 nm, and the emission spectra of the solution were recorded from 630 to 750 nm. […] For EtNBSe (3), the excitation wavelength was 655 nm, and the emission was recorded in the range from 660 to 750 nm. The fluorescence was calculated from the height of the peaks recorded. […] Uptake values were obtained by dividing the number of nmol of sensitizer in the dissolved pellet by the number of colony-forming units (CFU) obtained by serial dilutions and the number of photosensitizer molecules/cell calculated using Avogadro's number.
(§4) Illumination was performed either after or before excess dye was washed out. […] Exact power was measured with a laser power meter (model FM/GS, Coherent, Santa Clara, Calif.).

[2] = tested on: Candida albicans (ATCC 18804); test: Photodynamic inactivation of C. albicans (survival fraction by CFU after red light); format: cell-based; details: 20 μM dye, wash
Description: as §1
Cells were grown at 37° C. in aerobic conditions in a shaker at 150 rpm. […] C. albicans was grown for approximately 4 h to approximate density of 10^7 cells/mL corresponding to an OD of 6 at 650 nm (ten fold dilution measured). […]
Suspensions of microorganisms were incubated for 10 minutes with photosensitizer in the dark at room temperature. […] The fluorescence of dissolved pellets was measured on a spectrofluorimeter (FluoroMax3, SPEX Industries, Edison, N.J.). For EtNBA (1), the excitation wavelength was 625 nm, and the emission spectra of the solution were recorded from 630 to 750 nm. […] For EtNBSe (3), the excitation wavelength was 655 nm, and the emission was recorded in the range from 660 to 750 nm. The fluorescence was calculated from the height of the peaks recorded. […] Uptake values were obtained by dividing the number of nmol of sensitizer in the dissolved pellet by the number of colony-forming units (CFU) obtained by serial dilutions and the number of photosensitizer molecules/cell calculated using Avogadro's number.
as §4

[3] = in vivo; cited from earlier work
[4] = tested on: Enterococcus faecalis (ATCC 29212); test: Photodynamic inactivation of E. faecalis (survival fraction by CFU after red light); format: cell-based; details: 2 μM dye
Description: as §1, §2, §3
(§5) Suspensions of microorganisms were incubated for 10 minutes with photosensitizer in the dark at room temperature. Unbound photosensitizer was washed out by centrifugation of the mixture of dye and microorganisms for 6 minutes at 1550g, followed by resuspension of washed pellets in 10 mL PBS without Ca^++/Mg^++. Aliquots (200 μL) of these suspensions were used for photodynamic inactivation (PDI) experiments; the remaining suspensions were centrifuged again, and the pellets were dissolved in 3 mL 10% SDS for at least 24 hours. These suspensions were used for photosensitizer uptake measurement. The fluorescence of dissolved pellets was measured on a spectrofluorimeter (FluoroMax3, SPEX Industries, Edison, N.J.). For EtNBA (1), the excitation wavelength was 625 nm, and the emission spectra of the solution were recorded from 630 to 750 nm. For EtNBS (2), the excitation wavelength was 645 nm, and the range for emission was 650 to 750nm. For EtNBSe (3), the excitation wavelength was 655 nm, and the emission was recorded in the range from 660 to 750 nm. The fluorescence was calculated from the height of the peaks recorded. Calibration curves were made from pure photosensitizer dissolved in 10% SDS and used for determination of sensitizer concentration in the suspension. Uptake values were obtained by dividing the number of nmol of sensitizer in the dissolved pellet by the number of colony-forming units (CFU) obtained by serial dilutions and the number of photosensitizer molecules/cell calculated using Avogadro's number.
Illumination was performed either after or before excess dye was washed out. Aliquots of 200 μL of cell suspension were placed in 96-well plates and illuminated with appropriate light at room temperature. Fluences ranged from 0 to 80 Jcm^−2 at an irradiance of 60-100 mWcm^−2. Exact power was measured with a laser power meter (model FM/GS, Coherent, Santa Clara, Calif.).

[5] = tested on: Candida albicans (ATCC 18804); test: Dye uptake and binding by microbial cells, C. albicans (fluorescence of SDS-dissolved pellets); format: cell-based; details: 20 μM dye
Protocol: as §5
(§6) In order to do so, the uptake of dye was measured in terms of molecules per cell by carrying out 10 minute incubations with the same concentration of dyes that was used for photoinactivation, followed by a wash to remove residual incubating solution.
(§7) The bacterial pellets resulting from the incubation with photosensitizer were dissolved in 10% SDS to give a homogeneous solution, and comparison of the resulting fluorescence intensities with a calibration curve prepared with known concentrations of dye in the same solvent yielded the amount of dye in the pellet. […] For the fungus C. albicans, an even higher concentration of dye (20 μM) was used, because the eukaryotic cells are ten times bigger than the prokaryotic bacterial cells.

[6] = Absorption and fluorescence spectra, fluorescence quantum yield; details: for λfl(nm), fluorescence maximum: in ethanol; for λabs(nm), absorption maximum: in ethanol containing 0.1% acetic acid; for Φfl, absolute fluorescence quantum yield: relative to Cresyl Violet standard at 25° C.
Protocol: UV/visible absorption spectra were recorded using an HP 8453 spectrophotometer. Corrected fluorescence spectra were recorded using a SPEX Fluorolog2 (solvent measurements) or a FluoroMax3 (microorganism measurements), SPEX Industries, Edison, N.J. Fluorescence quantum yields were measured relative to Cresyl Violet standard at 25° C.^32 Quantum yields for ^1O2 formation were determined by measuring the ^1O2-mediated bleaching of 1,3-diphenylisobenzofuran^12 relative to Methylene Blue (0.50)^33 at 25° C. ^1H NMR spectra were obtained using a Varian 400 MHz spectrometer with TMS as internal standard.

[7] = Quantum yield of singlet oxygen formation (1,3-diphenylisobenzofuran bleaching); format: physicochemical; details: 1,3-diphenylisobenzofuran method, relative to Methylene Blue, 25° C.
Description: All solvents were reagent grade and used as received.
(§8) The relative photoactivities of the three photosensitizers studied herein were gauged by their abilities to generate singlet oxygen (^1O2) when illuminated with a beam of red light having an adjusted intensity such that each dye absorbed the same number of photons per unit time. […] Finally, because of the relevance of lipophilicity to the present studies, the partition coefficients for the PS between 2-octanol and phosphate-buffered saline (pH=7.4) are listed^18.

[8] = tested on: Escherichia coli (ATCC 25922); test: Dye uptake and binding by microbial cells, E. coli (fluorescence of SDS-dissolved pellets); format: cell-based; details: 5 μM dye; for cell uptake (molecules per cell), rank order: 10 minute incubation, wash
Protocol: as §5, §6, §7

[9] = Partition coefficient between 2-octanol and pH 7.4 buffered saline; format: physicochemical; details: for LogP, partition coefficient: pH 7.4
Description: as §8

[10] = tested on: Enterococcus faecalis (ATCC 29212); test: Dye uptake and binding by microbial cells, E. faecalis (fluorescence of SDS-dissolved pellets); format: cell-based; details: 2 μM dye; for cell uptake (molecules per cell), rank order: 10 minute incubation, wash
Protocol: as §5, §6, §7

[11] = reference standard value, 25° C.; cited from earlier work

Compound | toxicity in the dark [3] | fraction of total dye added that was bound to the cells [5] | λfl(nm), fluorescence maximum [6] [nm] | λabs(nm), absorption maximum [6] [nm] | Φfl, absolute fluorescence quantum yield [6] | 1O2, absolute quantum yield for singlet oxygen formation [7] | cell uptake (molecules per cell), rank order [8] | LogP, partition coefficient [9] | cell uptake (molecules per cell), rank order [10] | comparison of killing curves with and without a wash [4] | fraction of total dye added that was bound to the cells [8] | also measured
CCNc1cc2[o+]c3cc(N(CC)CC)ccc3nc2c2ccccc12 [Dye 1, 5-Ethylamino-9-diethylaminobenzo[a]phenoxazinium] | little or no toxicity in the dark | approximately 75% | 660 | 632 | 0.27 | 0.003 | EtNBSe (3)>EtNBS (2)>EtNBA (1) | 2.69 | EtNBSe (3)>EtNBS (2)>EtNBA (1) | – | – | killing of cells ([1]; wash, 80 J/cm^2): 90%; killing of cells ([2]; 80 J/cm^2): > 97%; killing of cells ([4]; wash, 80 J/cm^2 of 635-nm light): 95%; cell uptake (molecules per cell), comparison with EtNBSe (3) ([5]; 10 minute incubation, wash): significantly lower
CCN=c1cc2[se]c3cc(N(CC)CC)ccc3nc-2c2ccccc12 [Dye 3, 5-Ethylamino-9-diethylaminobenzo[a]phenoselenazinium chloride] | – | essentially quantitative | 703 | 661 | 0.03 | 0.78 | EtNBSe (3)>EtNBS (2)>EtNBA (1) | – | EtNBSe (3)>EtNBS (2)>EtNBA (1) | no significant difference in the two killing curves | essentially quantitative | comparison of killing curves with and without a wash [1]: bacteria washed free of incubating solution were actually killed slightly (but not significantly) more than those of the non-wash group; killing of cells ([1]; wash, 32 J/cm^2): > 99.9999%; killing of cells (logs) ([1]; wash, 32 J/cm^2): > 6 logs; killing of cells ([2]; 4 J/cm^2): more than 99%; killing of cells ([4]; wash, 8 J/cm^2 of 660-nm light): > 99.999%; killing of cells (logs) ([4]; wash, 8 J/cm^2 of 660-nm light): 5.5 logs; logP ([9]; between 2-octanol and pH 7.4 buffered saline): 2.08; fraction of total dye added that was bound to the cells [10]: approximately 75%
5-ethylamino-9-diethylaminobenzo[a]phenothiazinium [Dye 2] | little or no toxicity in the dark | essentially quantitative | 693 | 654 | 0.21 | 0.03 | EtNBSe (3)>EtNBS (2)>EtNBA (1) | 2.76 | EtNBSe (3)>EtNBS (2)>EtNBA (1) | the two curves are almost identical | approximately 75% | killing of cells ([1]; wash, 64 J/cm^2): more than 99%; killing of cells ([2]; 64 J/cm^2): > 98%; killing of cells ([4]; wash, 64 J/cm^2 of 652-nm light): > 99.9%
CN(C)c1ccc2nc3ccc(=[N+](C)C)cc-3sc2c1 [Methylene Blue] | – | – | – | – | – | – | – | – | – | – | – | quantum yield for 1O2 formation of the standard [11]: 0.50
